Laboratory results as given in patent US20100152434A1, “Protein Kinase-binding Nucleosides and Associated Methods” (priority 2007, published 2010).
Like-named read-outs stand apart in the source and are kept apart here.

How the values were obtained:
NCI/ADR-RES [1] = conditions: NCI/ADR-RES
UACC-62 [2] = tested on: UACC-62
788-0 = assay: cells; conditions: Homo sapiens, 786-0
SN12C [3] = assay: cells; conditions: Homo sapiens
TK-10 [4] = tested on: TK-10
SF-295 = assay: cells; conditions: Homo sapiens
HCT-15 = assay: cells; conditions: Homo sapiens
NCI-H226 = assay: cells; conditions: Homo sapiens
NCI/ADR-RES [5] = assay: cells; conditions: Homo sapiens
SNB-75 = assay: cells; conditions: Homo sapiens
UACC-62 [6] = assay: cells; conditions: Homo sapiens
MALME-3M = assay: cells; conditions: Homo sapiens
TK-10 [7] = assay: cells; conditions: Homo sapiens
M14 = assay: cells; conditions: Homo sapiens
MCF7 = assay: cells; conditions: Homo sapiens
HT29 = assay: cells; conditions: Homo sapiens
SN12C [8] = tested on: SN12C
SF-268 = assay: cells; conditions: Homo sapiens
DU-145 = assay: cells; conditions: Homo sapiens

## CNC(=O)NC[C@H]1O[C@@H](n2cnc3c(NC(=O)Nc4ccccc4)ncnc32)[C@H](O[Si](C)(C)C(C)(C)C)[C@@H]1CC(=O)N(C)OC [Compound 13, 2′-O-(tert-Butyldimethylsilyl)-3′,5′-dideoxy-3′-[(N-methoxy-N-methylcarboxamido)methyl]-5′-[(N-methylcarbamoyl)amino]-N^6-(N-phenylcarbamoyl)adenosine]
NCI/ADR-RES [1]
  TGI: >1.00E−4 Molar
NCI/ADR-RES [1]; Log10 Concentration −4.0
  Percent Growth: 55%
NCI/ADR-RES [1]; Log10 Concentration −5.0
  Percent Growth: 76%
NCI/ADR-RES [1]; Log10 Concentration −6.0
  Percent Growth: 105%
NCI/ADR-RES [1]; Log10 Concentration −7.0
  Percent Growth: 109%
NCI/ADR-RES [1]; Log10 Concentration −8.0
  Percent Growth: 109%
SK-MEL-2
  TGI: 8.31E−5 Molar
SK-MEL-2; Log10 Concentration −4.0
  Percent Growth: −5%
SK-MEL-2; Log10 Concentration −5.0
  Percent Growth: 62%
SK-MEL-2; Log10 Concentration −6.0
  Percent Growth: 92%
SK-MEL-2; Log10 Concentration −7.0
  Percent Growth: 83%
SK-MEL-2; Log10 Concentration −8.0
  Percent Growth: 85%
HOP-92
  TGI: 2.43E−5 Molar
HOP-92; Log10 Concentration −4.0
  Percent Growth: −43%
HOP-92; Log10 Concentration −5.0
  Percent Growth: 27%
HOP-92; Log10 Concentration −6.0
  Percent Growth: 67%
HOP-92; Log10 Concentration −7.0
  Percent Growth: 93%
HOP-92; Log10 Concentration −8.0
  Percent Growth: 80%
MDA-MB-231/ATCC
  TGI: >1.00E−4 Molar
MDA-MB-231/ATCC; Log10 Concentration −4.0
  Percent Growth: 5%
MDA-MB-231/ATCC; Log10 Concentration −5.0
  Percent Growth: 55%
MDA-MB-231/ATCC; Log10 Concentration −6.0
  Percent Growth: 94%
MDA-MB-231/ATCC; Log10 Concentration −7.0
  Percent Growth: 104%
MDA-MB-231/ATCC; Log10 Concentration −8.0
  Percent Growth: 97%
UACC-62 [2]
  TGI: >1.00E−4 Molar
UACC-62 [2]; Log10 Concentration −4.0
  Percent Growth: 39%
UACC-62 [2]; Log10 Concentration −5.0
  Percent Growth: 69%
UACC-62 [2]; Log10 Concentration −6.0
  Percent Growth: 96%
UACC-62 [2]; Log10 Concentration −7.0
  Percent Growth: 107%
UACC-62 [2]; Log10 Concentration −8.0
  Percent Growth: 102%
788-0
  GI50: 9.01 µM
SN12C [3]
  GI50: 85.3 µM
SN12C [3]; read-out: LC50
  CC50: > 100 µM
TK-10 [4]
  TGI: >1.00E−4 Molar
TK-10 [4]; Log10 Concentration −4.0
  Percent Growth: 17%
TK-10 [4]; Log10 Concentration −5.0
  Percent Growth: 65%
TK-10 [4]; Log10 Concentration −6.0
  Percent Growth: 104%
TK-10 [4]; Log10 Concentration −7.0
  Percent Growth: 106%
TK-10 [4]; Log10 Concentration −8.0
  Percent Growth: 99%
SK-OV-3
  TGI: >1.00E−4 Molar
SK-OV-3; Log10 Concentration −4.0
  Percent Growth: 38%
SK-OV-3; Log10 Concentration −5.0
  Percent Growth: 82%
SK-OV-3; Log10 Concentration −6.0
  Percent Growth: 95%
SK-OV-3; Log10 Concentration −7.0
  Percent Growth: 97%
SK-OV-3; Log10 Concentration −8.0
  Percent Growth: 96%
SF-295; SF-295
  GI50: 9.09 µM
SF-295; SF-295, read-out: LC50
  CC50: > 100 µM
T-47D
  TGI: >1.00E−4 Molar
T-47D; Log10 Concentration −4.0
  Percent Growth: 17%
T-47D; Log10 Concentration −5.0
  Percent Growth: 56%
T-47D; Log10 Concentration −6.0
  Percent Growth: 84%
T-47D; Log10 Concentration −7.0
  Percent Growth: 89%
T-47D; Log10 Concentration −8.0
  Percent Growth: 90%
U251
  TGI: >1.00E−4 Molar
U251; Log10 Concentration −4.0
  Percent Growth: 25%
U251; Log10 Concentration −5.0
  Percent Growth: 37%
U251; Log10 Concentration −6.0
  Percent Growth: 90%
U251; Log10 Concentration −7.0
  Percent Growth: 101%
U251; Log10 Concentration −8.0
  Percent Growth: 97%
HCT-15; HCT-15
  GI50: 6.47 µM
HCT-15; HCT-15, read-out: LC50
  CC50: > 100 µM
NCI-H226; NCI-H226
  GI50: 41.9 µM
NCI-H226; NCI-H226, read-out: LC50
  CC50: > 100 µM
OVCAR-8
  TGI: >1.00E−4 Molar
OVCAR-8; Log10 Concentration −4.0
  Percent Growth: 22%
OVCAR-8; Log10 Concentration −5.0
  Percent Growth: 48%
OVCAR-8; Log10 Concentration −6.0
  Percent Growth: 103%
OVCAR-8; Log10 Concentration −7.0
  Percent Growth: 106%
OVCAR-8; Log10 Concentration −8.0
  Percent Growth: 107%
NCI/ADR-RES [5]
  GI50: > 100 µM
NCI/ADR-RES [5]; read-out: LC50
  CC50: > 100 µM
KM12
  TGI: >1.00E−4 Molar
KM12; Log10 Concentration −4.0
  Percent Growth: 30%
KM12; Log10 Concentration −5.0
  Percent Growth: 62%
KM12; Log10 Concentration −6.0
  Percent Growth: 106%
KM12; Log10 Concentration −7.0
  Percent Growth: 108%
KM12; Log10 Concentration −8.0
  Percent Growth: 101%
SNB-75; SNB-75
  GI50: 12.7 µM
SNB-75; SNB-75, read-out: LC50
  CC50: > 100 µM
UACC-62 [6]; UACC-62
  GI50: 41.9 µM
UACC-62 [6]; UACC-62, read-out: LC50
  CC50: > 100 µM
MALME-3M
  GI50: 11.4 µM
MALME-3M; read-out: LC50
  CC50: > 100 µM
TK-10 [7]; TK-10
  GI50: 20.5 µM
TK-10 [7]; TK-10, read-out: LC50
  CC50: > 100 µM
M14; M14
  GI50: 15.2 µM
M14; M14, read-out: LC50
  CC50: > 100 µM
MCF7; MCF7
  GI50: 5.59 µM
MCF7; MCF7, read-out: LC50
  CC50: > 100 µM
HT29; HT-29
  GI50: 5.37 µM
HT29; HT-29, read-out: LC50
  CC50: > 100 µM
SN12C [8]
  TGI: >1.00E−4 Molar
SN12C [8]; Log10 Concentration −4.0
  Percent Growth: 49%
SN12C [8]; Log10 Concentration −5.0
  Percent Growth: 66%
SN12C [8]; Log10 Concentration −6.0
  Percent Growth: 96%
SN12C [8]; Log10 Concentration −7.0
  Percent Growth: 104%
SN12C [8]; Log10 Concentration −8.0
  Percent Growth: 106%
SF-268; SF-268
  GI50: 8.29 µM
SF-268; SF-268, read-out: LC50
  CC50: > 100 µM
DU-145; DU-145
  GI50: 16.6 µM
DU-145; DU-145, read-out: LC50
  CC50: > 100 µM
